Results on one compound are retold here after publication PMC12384447, “Effect of a Novel Antidepressant and Anticancer Nuc01 on Depression in Cancer Survivors” (Current Issues in Molecular Biology, 2025).

In this test the target is T1, LSD1 (lysine-specific demethylase 1) (Homo sapiens, UniProt O60341).
T1 construct: gene KDM1A; residues 172–852
The test can be described thus: TR-FRET (LANCE) demethylase assay with biotinylated histone H3K4me1 peptide. It is filed as biochemical. (In general: TR-FRET usually uses a lanthanide donor and a delayed reading to cut background.)

What is called IC50 is the concentration at which inhibition is half-maximal. `CN(C)CC(c1ccc(OC(=O)N(C)CCN(C)C2CC2c2ccccc2)cc1)C1(O)CCCCC1` (stereo not shown) [Nuc01] had an IC50 of 530 nM.
